Results: patent US20200361871A1 (Enterprise Therapeutics Ltd., priority 2018, published 2020)

Molecular target: human TMEM16A (TMEM16Aabc variant) (Homo sapiens, UniProt Q5XXA6, DEL476-501, form not given)
Assay: Automated whole-cell patch clamp (Qpatch) TMEM16A potentiator assay in FRT cells stably expressing human TMEM16A
Assay type: cell-based
Conditions: for % Potentiation @ 3.33 μM Avg: 3.33 μM solution of test compound, percentage increase of baseline TMEM16A current; for EC50: calculated EC50, Qpatch TMEM16A current at +70 mV
Procedure, shortened: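 Potentiation was read as the rise in peak +70 mV current over baseline (%), from cumulative 5-min additions of compound. Recordings used whole-cell automated patch of FRT cells stably carrying human TMEM16Aabc, with pipette Ca2+ buffered to give ~20% maximal current. EC50 and efficacy came from concentration-response fits.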

Chain of human TMEM16A (TMEM16Aabc variant) (Q5XXA6 with tags, fused parts or gaps DEL476-501): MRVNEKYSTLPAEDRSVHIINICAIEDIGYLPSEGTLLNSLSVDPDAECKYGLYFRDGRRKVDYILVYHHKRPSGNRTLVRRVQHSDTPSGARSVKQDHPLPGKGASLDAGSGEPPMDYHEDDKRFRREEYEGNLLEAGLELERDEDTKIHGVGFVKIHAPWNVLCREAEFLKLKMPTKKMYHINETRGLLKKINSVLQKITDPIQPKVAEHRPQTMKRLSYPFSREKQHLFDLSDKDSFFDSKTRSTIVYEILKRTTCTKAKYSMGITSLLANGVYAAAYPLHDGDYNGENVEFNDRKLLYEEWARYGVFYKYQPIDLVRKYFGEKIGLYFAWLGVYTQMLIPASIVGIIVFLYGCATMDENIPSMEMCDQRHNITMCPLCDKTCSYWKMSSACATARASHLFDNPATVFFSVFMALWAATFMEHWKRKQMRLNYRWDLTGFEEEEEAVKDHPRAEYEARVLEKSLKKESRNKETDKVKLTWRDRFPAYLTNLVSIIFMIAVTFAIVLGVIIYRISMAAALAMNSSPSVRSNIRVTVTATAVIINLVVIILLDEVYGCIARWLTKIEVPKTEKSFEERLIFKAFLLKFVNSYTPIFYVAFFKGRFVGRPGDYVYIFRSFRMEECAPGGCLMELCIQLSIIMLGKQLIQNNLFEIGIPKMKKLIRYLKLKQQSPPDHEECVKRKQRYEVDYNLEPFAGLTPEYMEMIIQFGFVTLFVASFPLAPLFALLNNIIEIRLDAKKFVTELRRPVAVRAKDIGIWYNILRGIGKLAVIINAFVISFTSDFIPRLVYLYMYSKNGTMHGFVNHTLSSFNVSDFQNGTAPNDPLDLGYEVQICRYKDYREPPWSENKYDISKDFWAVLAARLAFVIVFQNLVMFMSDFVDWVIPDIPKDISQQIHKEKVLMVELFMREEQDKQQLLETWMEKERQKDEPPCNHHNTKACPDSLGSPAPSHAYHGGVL

Compound | % Potentiation @ 3.33 μM Avg [%] | EC50 [nM]
N#CC1(NC(=O)c2cc(NC(=O)Cc3ccc4ncccc4c3)ccn2)CCC1 [Example 23.11, N-(1-Cyanocyclobutyl)-4-[[2-(6-quinolyl)acetyl]amino]pyridine-2-carboxamide] | 101 | 
N#CC1(NC(=O)c2cc(NC(=O)Cc3ccccc3Cl)ccn2)CCC1 [Example 30, 4-[[2-(2-Chlorophenyl)acetyl]amino]-N-(1-cyanocyclobutyl)pyridine-2-carboxamide] | 113 | 1220
CC1(NC(=O)c2cc(NC(=O)Cc3cc(Cl)ccc3O)ccn2)CCCCC1 [Example 1.7, 4-[[2-(5-Chloro-2-hydroxy-phenyl)acetyl]amino]-N-(1-methylcyclohexyl)pyridine-2-carboxamide] | 239 | 150
CC(C)(C)NC(=O)c1cc(NC(=O)Cc2ccc3c(c2)OCCO3)ccn1 [Compound 5.32] | 285 | 
CC(C#N)(CO)NC(=O)c1cc(NC(=O)Cc2cc(Cl)ccc2O)ccn1 (racemic) [Example 46, 4-[[2-(5-Chloro-2-hydroxy-phenyl)acetyl]amino]-N-(1-cyano-2-hydroxy-1-methyl-ethyl)pyridine-2-carboxamide] | 275 | 250
CC(C)C(C)(C)NC(=O)c1cccc(NC(=O)Cc2cc(Cl)ccc2O)c1 [Example 7.5, 3-[[2-(5-Chloro-2-hydroxy-phenyl)acetyl]amino]-N-(1,1,2-trimethylpropyl)benzamide] | 239 | 280
COc1ccccc1-c1cc(C(=O)Nc2ccnc(C(=O)NC(C)(C)C#N)c2)no1 [Example 83.27, N-[2-[(1-Cyano-1-methyl-ethyl)carbamoyl]-4-pyridyl]-5-(2-methoxyphenyl)isoxazole-3-carboxamide] | -11 | 
Cc1cccc(CC(=O)Nc2ccnc(C(=O)NC(C)(C)C)c2)c1 [Example 5.14, N-tert-Butyl-4-[[2-(m-tolyl)acetyl]amino]pyridine-2-carboxamide] | 128 | 760
CCC(C)(C)NC(=O)c1cccc(NC(=O)Cc2ccccc2O)c1 [Example 1.1, N-(1,1-Dimethylpropyl)-3[[2-(2-hydroxyphenyl)acetyl]amino]benzamide] | 182 | 560
CC(C)(C)NC(=O)c1cc(NC(=O)Cc2c(O)cccc2Cl)ccn1 [Example 3.3a, N-tert-Butyl-4-[[2-(2-chloro-6-hydroxy-phenyl)acetyl]amino]pyridine-2-carboxamide] | 91 | 70
CC(C)(C#N)NC(=O)c1cc(NC(=O)Cc2cc(Cl)ccc2O)ccn1 [Example 34, 4-[[2-(5-Chloro-2-hydroxy-phenyl)acetyl]amino]-N-(1-cyano-1-methyl-ethyl)pyridine-2-carboxamide] | 245 | 90
N#CC1(NC(=O)c2cc(NC(=O)Cc3cc(Cl)ccc3O)ccn2)CCC1 [Example 7.16, 4-[[2-(5-Chloro-2-hydroxy-phenyl)acetyl]amino]-N-(1-cyanocyclobutyl)pyridine-2-carboxamide] | 354 | 130
CC1(O)CCC(NC(=O)c2cc(NC(=O)Cc3cc(Cl)ccc3O)ccn2)CC1 (centres unmarked) [Example 35.1, 4-[[2-(5-Chloro-2-hydroxy-phenyl)acetyl]amino]-N-(4-hydroxy-4-methyl-cyclohexyl) pyridine-2-carboxamide] | 51 | 
N#CC1(NC(=O)c2cccc(NC(=O)Cc3cc(F)ccc3O)c2)CCOCC1 [Example 41, N-(4-Cyanotetrahydropyran-4-yl)-3-[[2-(5-fluoro-2-hydroxy-phenyl)acetyl]amino] benzamide] | 38 | 
